In article PMC11714206, “Massively Parallel Screening of Toll/Interleukin‐1 Receptor (TIR)‐Derived Peptides Reveals Multiple Toll‐Like Receptors (TLRs)‐Targeting Immunomodulatory Peptides” (Advanced Science, 2024):
Values belong to the sequence of their own block, whether it stands above or below them.

Molecular target: T1, MAL^TIR (Homo sapiens, UniProt P58753)
T1 construct: MAL (residues 79–221); 6xHis; made in house; host or cells: E. coli BL21 (DE3)
Experiment: T‐Surf phage library (P8 and P3) selection against MAL^TIR, four rounds, NGS read counts
Assay type: binding
Settings: for P8_MAL Rank (after) / P8_MAL Rank (before): P8 library; for Population: P8_MAL pool: P8 T-Surf phage library, 4th round of selection against MAL TIR, share of NGS reads; for P3_MAL Rank (after) / P3_MAL Rank (before): P3 library
Summary of the method: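 Read counts come from NGS of phage pools after the fourth selection round, barcoded by 20-cycle PCR and filtered for quality ≥30. Each round: phage incubated 1 h at RT on immobilised TIR protein (5 µg mL^−1, BSA-blocked), washed, HCl-eluted and amplified in E. coli TG1.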

[1] = selection against MAL TIR, rank by count after grouping
[2] = selection against MAL TIR, rank by count before grouping
[3] = selection against MAL, rank after grouping
[4] = selection against MAL, rank before grouping
[5] = P8_MAL: rank by count after grouping
[6] = P8_MAL: rank by count before grouping
[7] = 4R selection against MAL, rank after grouping
[8] = 4R selection against MAL, rank before grouping
[9] = selection against MAL, rank by count after grouping
[10] = selection against MAL, rank by count before grouping
[11] = P3_MAL: rank by count after grouping
[12] = P3_MAL: rank by count before grouping

T1 sequence (P58753 79-221): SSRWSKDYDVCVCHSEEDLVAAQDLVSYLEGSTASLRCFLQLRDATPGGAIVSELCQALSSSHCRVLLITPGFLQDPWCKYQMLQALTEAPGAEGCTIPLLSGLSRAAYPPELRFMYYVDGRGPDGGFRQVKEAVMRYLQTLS

P8_MAL Rank (after) [3]: 563
P8_MAL Rank (before) [4]: 2097
Sequence: LFFWESLKQLLRRWP

P8_MAL Rank (after) [7]: 608
P8_MAL Rank (before) [8]: 2112
Sequence: LFFWESLKQPLRSEGR

P8_MAL Rank (after) [1]: 260
P8_MAL Rank (before) [2]: 2058
Sequence: LFFWGSLRQLLRNDDG

P8_MAL Rank (after) [7]: 646
P8_MAL Rank (before) [8]: 2170
Sequence: LFFYESLKHLLRIDCR

P8_MAL Rank (after) [7]: 652
P8_MAL Rank (before) [8]: 2150
Sequence: LFLGESLKLLRRSDGR

P8_MAL Rank (after) [3]: 496
P8_MAL Rank (before) [4]: 1104
Sequence: LFYERLVSLILRDTRG

P8_MAL Rank (after) [7]: 639
P8_MAL Rank (before) [8]: 1100
Sequence: LFYGRMVSLILRDTNV

Rank (after) [11]: 435
Rank (before) [12]: 2116
Sequence: LGFFCNQAKALSDRGI

P3_MAL Rank (after) [9]: 693
P3_MAL Rank (before) [10]: 2082
Sequence: LGFLRHLRHHLQAKDH

Rank (after) [11]: 399
Rank (before) [12]: 2081
Sequence: LGFLSHLALNLQAKEH

Rank (after) [11]: 95
Rank (before) [12]: 95
Sequence: LGKPGVTDEAQETGSL

P3_MAL Rank (after) [7]: 671
P3_MAL Rank (before) [8]: 2132
Sequence: LHNNRILVLITLPTNV

P3_MAL Rank (after) [1]: 259
P3_MAL Rank (before) [2]: 2306
Sequence: LKAESWRQAPEKAGKL

P3_MAL Rank (after) [1]: 215
P3_MAL Rank (before) [2]: 2299
Sequence: LKVERWRQALEKADKL

P3_MAL Rank (after) [3]: 549
P3_MAL Rank (before) [4]: 2274
Sequence: LKVESWRQALEKAGT

P3_MAL Rank (after) [3]: 530
P3_MAL Rank (before) [4]: 2248
Sequence: LKWGDPYFWRKIRYAM

Rank (after) [5]: 111
Rank (before) [6]: 2159
Sequence: LLFWGSLKQLLRSDGR

Further lines, the sequence ahead of its results:

Sequence: LFFWESLKQLLRRAGL
P8_MAL Rank (after) [1]: 252
P8_MAL Rank (before) [2]: 2096

Sequence: LFFWESLKQLLRSAGR
Population: 0.0034%

Sequence: LFFWESLKQLLRSDG
Rank (after) [5]: 178
Rank (before) [6]: 2104

Sequence: LFFWESLKQLLRSGGR
Population: 0.0034%

Sequence: LFFWESLKQLLRSVGH
P8_MAL Rank (after) [3]: 538
P8_MAL Rank (before) [4]: 2102

Sequence: LFFWESLKQLLRSVGR
Population: 0.0034%

Sequence: LFFWESLKQLLRTVLGKPTM
P8_MAL Rank (after) [7]: 669
P8_MAL Rank (before) [8]: 2109

Sequence: LFFWESLKQRLRSDVR
P8_MAL Rank (after) [1]: 193
P8_MAL Rank (before) [2]: 2118

Sequence: LFFWGSLKHLLRSGCR
P8_MAL Rank (after) [9]: 691
P8_MAL Rank (before) [10]: 2059

Sequence: LFFWGSLKQLLRNDGR
Rank (after) [5]: 128
Rank (before) [6]: 2061

Sequence: LFFWKSLKQLLRSDSR
Rank (after) [5]: 124
Rank (before) [6]: 2128

Sequence: LFLWASLKQLLRSANC
P8_MAL Rank (after) [7]: 661
P8_MAL Rank (before) [8]: 2142

Sequence: LFLWDSLKQPLRSDGR
P8_MAL Rank (after) [1]: 224
P8_MAL Rank (before) [2]: 2143

Sequence: LFLWECLKQLLRSDGR
P8_MAL Rank (after) [3]: 507
P8_MAL Rank (before) [4]: 2144

Sequence: LFLWESLKHLLRSDGR
P8_MAL Rank (after) [1]: 232
P8_MAL Rank (before) [2]: 2146

Sequence: LFLWESLKHLLRSDSL
P8_MAL Rank (after) [9]: 719
P8_MAL Rank (before) [10]: 2147

Sequence: LFWELLRQALGSRNRL
P8_MAL Rank (after) [3]: 488
P8_MAL Rank (before) [4]: 2152

Sequence: LFYEESLKQLLRANDR
P8_MAL Rank (after) [1]: 276
P8_MAL Rank (before) [2]: 1101

Sequence: LFYERLVSLILRHTRV
P8_MAL Rank (after) [7]: 624
P8_MAL Rank (before) [8]: 1103

Sequence: LFYERLVSLMLRDTKG
P8_MAL Rank (after) [1]: 274
P8_MAL Rank (before) [2]: 1105

Sequence: LKAERWRQALEKAGKL
P3_MAL Rank (after) [1]: 226
P3_MAL Rank (before) [2]: 2304

Sequence: LKEESWRQAQEKAGKL
P3_MAL Rank (after) [9]: 744
P3_MAL Rank (before) [10]: 2310

Sequence: LKEESWRRALERAGKL
Rank (after) [11]: 410
Rank (before) [12]: 2307

Sequence: LKGESWRQAREKAGKL
P3_MAL Rank (after) [3]: 533
P3_MAL Rank (before) [4]: 2303

Sequence: LKVEGWRLALEKAGTL
P3_MAL Rank (after) [3]: 484
P3_MAL Rank (before) [4]: 2258

Sequence: LKVESWLQTLAKAGKL
P3_MAL Rank (after) [9]: 763
P3_MAL Rank (before) [10]: 2262

Sequence: LKVESWRQALKQRAL
P3_MAL Rank (after) [3]: 483
P3_MAL Rank (before) [4]: 2283

Sequence: LKVESWRRAPEKAGKL
Rank (after) [11]: 457
Rank (before) [12]: 2263

Sequence: LKVKLASGAGKSGQT
P3_MAL Rank (after) [7]: 619
P3_MAL Rank (before) [8]: 2301

Sequence: LKWGDPRQASKLGYTM
P3_MAL Rank (after) [9]: 761
P3_MAL Rank (before) [10]: 2242

Sequence: LKWGDPYFLEQTALCD
P3_MAL Rank (after) [9]: 771
P3_MAL Rank (before) [10]: 2208

Sequence: LKWGDPYFWIKLRYTM
P3_MAL Rank (after) [1]: 233
P3_MAL Rank (before) [2]: 2212

Sequence: LKWGDPYFWSNCVMR
P3_MAL Rank (after) [9]: 699
P3_MAL Rank (before) [10]: 2216

Sequence: LLIYRFVKKRNYLLGH
Rank (after) [11]: 416
Rank (before) [12]: 2085
